In PMC10671498, “Antiproliferative and Cytotoxic Properties of Propynoyl Betulin Derivatives against Human Ovarian Cancer Cells: In Vitro Studies” (International Journal of Molecular Sciences, 2023):
pIC50: −log10 of the molar value.

Assays:
DU145 cells = tested on: DU145 cells; set-up: method as in PMID 30947097; conditions: cited from earlier work
A549 cells = tested on: A549 cells; set-up: method as in PMID 30947097; conditions: cited from earlier work
OVCAR-3 cells [1] = test: SRB cell proliferation assay, OVCAR-3; type: cell-based, human; conditions: for pIC50: Homo sapiens
Description: OVCAR-3 cells (ATCC No. HTB-161™) were cultured in RPMI-1640 medium containing HEPES buffer (2.383 g/L), sodium bicarbonate (1.5 g/L), sodium pyruvate (0.11 g/L) supplemented with 20% fetal bovine serum, 10 µg/mL bovine insulin, 100 U/mL penicillin, and 100 μg/mL streptomycin (all from Sigma Aldrich).
(§1) Betulin 1 and its derivatives were dissolved in dimethyl sulfoxide (DMSO; Sigma Aldrich) as a 15 mM stock solution. Working solutions were prepared through the dilution of stock solutions with culture medium. The final DMSO concentration in culture media was adjusted to 0.2%. The effect of tested compounds on the proliferation of SK-OV-3 and OVCAR-3 cells was measured using the In Vitro Toxicology Assay Kit, Sulforhodamine B based (Sigma Aldrich). Cells were seeded in 96-well plates (Greiner Bio-One, Kremsmünster, Austria) at an initial density of 3 × 10^3 cells per well in 200 µL of culture medium. After 24 h of incubation, betulin 1 and its derivatives at a concentration range of 0.1 μM to 30 μM were added to the wells. Control cultures were treated with vehicle alone (0.2% DMSO). The incubation periods for cells with test compounds were 1 day, 3 days, and 5 days. After appropriate incubation periods, culture media were removed, and cells were fixed in 10% trichloroacetic acid solution for 60 min at 4 °C. After fixation, the TCA solution was removed, and the plates were washed three times with deionized water (300 μL/well) and dried. At the next step, cells were stained with 0.4% sulforhodamine B for 30 min. The excess dye was removed by washing three times with 1% (vol/vol) acetic acid. The protein-bound dye was dissolved in 200 μL 10 mM Tris base solution. Absorbance was measured at 570 nm and 690 nm (reference wavelength) using the MRX Revelation plate reader (Dynex Technologies, Chantilly, VA, USA).
(§2) GraphPad Prism 10.0.2 (GraphPad Software Inc., San Diego, CA, USA) software was used for calculations and the statistical analysis of the IC50 values (Table 1). IC50 was determined by using the “nonlinear regression” mode, and the “log(inhibitor) vs. normalised response—Variable slope” equation was chosen in GraphPad Prism software for calculations. The obtained data were normalized to run from 100% down to 0%, and logarithms of concentration were used. Graphs (Figure 2, Figure 3, Figure 4, Figure 5 and Figure 8, and Supplementary Figure S1) were also prepared using this software. In the case of the lack of normal distribution or homogeneity of variances, the remaining results were analyzed using a non-parametric Kruskal–Wallis test with multiple comparisons. Post hoc analysis was performed with the non-parametric equivalent of Tukey’s test. A p value of <0.05 was considered statistically significant. Otherwise, a one-way ANOVA followed by a Tukey’s post hoc test was applied. t-tests was used to perform pairwise comparisons between group means. Analysis was performed using Statistica 13.1 software (StatSoft, Tulsa, OK, USA).

Hs294T cells = tested on: Hs294T cells; set-up: method as in PMID 30947097; conditions: cited from earlier work
MV-4-11 cells = tested on: MV-4-11 cells; set-up: method as in PMID 30947097; conditions: cited from earlier work
P388 cells = tested on: P388 cells; set-up: method as in PMID 30947097; conditions: cited from earlier work
[2] = tested on: 18Co normal myofibroblasts; test: SRB cell proliferation assay, 18Co normal myofibroblasts; type: cell-based
Description: Next, 18Co cells (ATCC No. CRL-1459™) were cultured in MEM medium containing HEPES buffer, 10% fetal bovine serum, 100 U/mL penicillin, and 100 μg/mL streptomycin (all from Sigma Aldrich).
as §1, §2

CCRF/CEM cells = tested on: CCRF/CEM cells; set-up: method as in PMID 30947097; conditions: cited from earlier work
SK-OV-3 cells [3] = test: LDH release assay, SK-OV-3; type: cell-based, human; conditions: SK-OV-3, 24 h, all concentrations (3, 10, 30 μM)
Description: (§3) In order to evaluate the cytotoxic effect, the release of LDH into the culture medium using the In Vitro Toxicology Assay Kit, Lactic Dehydrogenase Based (TOX7; Sigma Aldrich) was assessed. SK-OV-3 and OVCAR-3 cells were plated and cultured in 96-well plates (Greiner Bio-One) at the initial density of 5 × 10^3 cells per well in 100 µL of culture medium. The density of the cells was determined in the same manner as in the SRB assay. After 24 h, the media were replaced with the working solutions, which contained appropriate test compounds at concentrations of 3 μM, 10 μM, 30 μM, and control medium (0.2% DMSO). Cells were exposed to the test substances for 24 h. The background control comprised wells without cells with only control medium. To determine the maximal LDH release (high control), half of the control cultures were treated with lysis buffer. Wells with untreated cells were used as the low control of the assay. LDH activity in media was assessed according to the manufacturer’s protocol. The absorbance was measured at wavelengths of 490 nm and 690 nm (background), and the percentage of released enzyme was calculated for cells growing in the presence of compounds according to the formula:Cytotoxicity [%] = [(AT − AL)/(AH − AL)] × 100 where AT is the absorbance of treated wells; AL is low control; and AH is high control (maximal LDH release).
(§4) Cytotoxicity was expressed as a percentage of the released LDH calculated according to the difference between the absorbance of the treated and low control wells divided by the difference between the absorbance of the high control and low control wells.

SK-OV-3 cells [4] = test: SRB cell proliferation assay, SK-OV-3; type: cell-based, human; conditions: for pIC50: Homo sapiens
Description: This study used ovarian cancer cell lines, which are part of the panel of cell lines used as part of the NCI-60 Human Cell Lines Screen program, characterized by overexpression of the c-erbB2/neu (HER2) receptor [62, 63]. The human ovarian cancer cell lines (SK-OV-3 and OVCAR-3) were purchased from the American Type Culture Collection (ATCC®, Manassas, Virginia, USA). SK-OV-3 cells (ATCC No. HTB-77™) were cultured in McCoy’s 5A medium containing D-glucose (3 g/L), L-glutamine (0.219 g/L), and sodium bicarbonate (2.2 g/L) supplemented with 10% fetal bovine serum, 10 mM HEPES (pH 7.3–7.5), 100 U/mL penicillin, and 100 μg/mL streptomycin (all from Sigma Aldrich).
as §1, §2

OVCAR-3 cells [5] = test: LDH release assay, OVCAR-3; type: cell-based, human; conditions: OVCAR-3, 24 h, all concentrations (3, 10, 30 μM)
Description: as §3, §4

Q: For `C#CC(=O)OC[C@]12CC[C@@H](C(=C)C)C1C1CCC3[C@@]4(C)CC[C@H](OP(=O)(OCC)OCC)C(C)(C)C4CC[C@@]3(C)[C@]1(C)CC2` (stereo partly shown) [Compound 3, 3-O-diethoxyphosphorylbetulin-28-O-propynoylbetulin], which tumor growth inhibition (DU145 cells) is on record?
A: Significant tumor growth inhibition

Q: What about the tumor growth inhibition (A549 cells) of the same molecule?
A: Significant tumor growth inhibition

Q: What about the pIC50 (OVCAR-3 cells [1]; OVCAR-3, 72 h) of the same molecule?
A: 6.05

Q: What about the pIC50 (OVCAR-3 cells [1]; OVCAR-3, 120 h) of the same molecule?
A: 6.31

Q: And the “concentration at which antiproliferative activity (decrease in the number of cells) was evident” value (OVCAR-3 cells [1]; OVCAR-3, SRB assay, 0.1–30 µM)?
A: 1 µM

Q: What about the tumor growth inhibition (Hs294T cells) of the same molecule?
A: Significant tumor growth inhibition

Q: What about the tumor growth inhibition (MV-4-11 cells) of the same molecule?
A: Significant tumor growth inhibition

Q: What about the tumor growth inhibition (P388 cells) of the same molecule?
A: Significant tumor growth inhibition

Q: And the IC50 ([2]; 18Co, 5 days treatment, Neg: negative in the concentration used)?
A: Neg

Q: And the pIC50 ([2]; 72 h)?
A: 4.91

Q: And the tumor growth inhibition (CCRF/CEM cells)?
A: Significant tumor growth inhibition

Q: And the “cytotoxicity (released LDH)” value (SK-OV-3 cells [3])?
A: strong cytotoxic effect

Q: What about the pIC50 (SK-OV-3 cells [4]; SK-OV-3, 72 h) of the same molecule?
A: 6.54

Q: And the pIC50 (SK-OV-3 cells [4]; SK-OV-3, 120 h)?
A: 6.47

Q: And the “concentration at which antiproliferative activity (decrease in the number of cells) was evident” value (SK-OV-3 cells [4]; SK-OV-3, SRB assay, 0.1–30 µM)?
A: 1 µM

Q: And the “cytotoxicity (released LDH)” value (OVCAR-3 cells [5])?
A: strongest cytotoxicity
